Laboratory results: US20200264182A1, “METHOD FOR DETECTING PROSTATE CANCER” (J-OIL MILLS, INC., priority 2017, published 2020)

Legend:
[1] = FAC binding constant (Table 5 entry); conditions: Table 5: sugar chain having no fucose; at 25° C.
Description: (§1) Details of the FAC method are described in Patent Document 2 filed by some of the present applicants, for example.
(§2) Binding constants (at 25° C.) of PhoSL, SRL, NSL and LSL belonging to the fucose α1→6 specific lectin for various sugar chains are shown in Tables 2 to 5.

serum fucosylated PSA = experiment: Sandwich ELISA, anti-PSA antibody and biotin-labeled lectin; assay type: binding, human; conditions: for Δ (=A − B): reaction value of Prostate cancer 4 minus Healthy 1; for lectin reaction value B of Healthy 1: serum of Healthy 1; for lectin reaction value A of Prostate cancer 4: serum of Prostate cancer 4, GS 6 (3 + 3)
Description: The anti-PSA antibody from which sugar chains had been removed was diluted to 5 μg/mL with PBS. 25 μL of this diluted solution was added to each well of an ELISA plate and allowed to stand at 37° C. for 12 hours, and then the additive solution was discarded.
150 μL of PBS containing 0.05% Tween 20 (product name: polyoxyethylene sorbitan monolaurate, from Nacalai Tesque, Inc.) was added to each well, and then the additive solution was discarded. This manipulation was repeated three times in total.
25 μL of 1% BSA/PBS was added to each well and allowed to stand at 37° C. for 1 hour, and then the additive solution was discarded.
150 μL of PBS containing 0.05% Tween 20 was added to each well, and then the additive solution was discarded. This manipulation was repeated three times in total.
To graph a calibration curve, 25 μL of the fucosylated PSA reference standard diluted with 1% BSA/PBS to a concentration of 0 to 200 ng/mL was added to each well and allowed to stand at room temperature for 1 hour, and then the additive solution was discarded. In addition, to detect the fucosylated PSA in the serum of the subject by the lectin, 25 μL of serum of “Healthy 1” and “Prostate cancer 4” 2-fold diluted with PBS was added to each well and allowed to stand at room temperature for 1 hour, and then the additive solution was discarded.
In Reference Example 1, 25 μL of a biotin-labeled PhoSL diluted to 0.1 μg/mL with 0.1% BSA/PBS (pH 7.4) was added to each well and allowed to stand at 4° C. for 30 minutes, and then the additive solution was discarded. In Example 1, 25 μL of a biotin-labeled PhoSL diluted to 0.1 μg/mL with 0.1% BSA/10-fold diluted PBS+glycine-NaOH (pH 9.6) was added to each well and allowed to stand at 4° C. for 30 minutes, and then the additive solution was discarded.
25 μL of a horseradish peroxidase (HRP)-labeled streptavidin solution (from Vector Laboratories, Inc., concentration: 0.4 μg/mL, in 1% BSA/PBS) was added to each well and allowed to stand at room temperature for 30 minutes, and then the additive solution was discarded.
25 μL of chromogenic substrate for HRP (product name: TMB, from Kirkegaard & Perry Laboratories, Inc.) was added to each well and allowed to stand at room temperature for 10 minutes.
25 μL of 1M phosphoric acid was added to terminate the reaction.
Absorbance (Ab) at 450 nm and 630 nm was measured using a plate reader, and a measurement (Ab450-630) was obtained.
A calibration curve was graphed by plotting signals (reaction values, Ab450-630) of the fucosylated PSA reference standard with the biotin-labeled PhoSL. A Signal (Ab450-630) of the biotin-labeled PhoSL corresponding to the fucosylated PSA concentration of 10 ng/mL was defined as 10 U/mL.
The signals of biotin-labeled PhoSL (Ab450-630) for the serum fucosylated PSA in the subject samples A were assigned to the calibration curve to calculate reaction values (unit: U/mL).
The PhoSL reaction values for the subject samples A were measured by the same operation as in Example 1. From the PhoSL reaction values, an average value and a median value were determined. Furthermore, a standard cutoff value (89.7 U/mL) was used to determine a detection rate (positive rate) of the prostate cancer patients, and a false detection rate (false positive rate) of the healthy persons.
Comparative Example 2 in Table 9 indicates results of detecting the serum fucosylated PSA using AAL (AAL reaction values) in the subject samples A. Specifically, in Reference Example 1, AAL reaction values were measured in the same manner as in Reference Example 1 except that the biotin-labeled PhoSL was replaced with a biotin-labeled AAL. A standard cut-off value for the AAL reaction values was 894.8 U/mL. As in Example 2, an average value, a median value, a positive rate and a false positive rate were determined from the AAL reaction values.

FAC binding constant = conditions: at 25° C.
Description: as §1, §2

[2] = sugar chain having fucose other than α1→6 fucose

Binding constant for sugar chain No. 728 [1]: <1000 M⁻¹
Binding constant for sugar chain No. 728 (FAC binding constant; Table 3: sugar chain having fucose other than α1→6 fucose): <1000 M⁻¹
Binding constant for sugar chain No. 419 (FAC binding constant; [2]): <1000 M⁻¹
Binding constant for sugar chain No. 420 (FAC binding constant; [2]): <1000 M⁻¹
Binding constant for sugar chain No. 718 (FAC binding constant; [2]): <1000 M⁻¹
Binding constant for sugar chain No. 719 (FAC binding constant; [2]): <1000 M⁻¹
Binding constant for sugar chain No. 720 (FAC binding constant; [2]): <1000 M⁻¹
Binding constant for sugar chain No. 721 (FAC binding constant; [2]): <1000 M⁻¹
Binding constant for sugar chain No. 722 (FAC binding constant; [2]): <1000 M⁻¹
Binding constant for sugar chain No. 723 (FAC binding constant; [2]): <1000 M⁻¹
Binding constant for sugar chain No. 726 (FAC binding constant; [2]): <1000 M⁻¹
Binding constant for sugar chain No. 727 (FAC binding constant; [2]): <1000 M⁻¹
Binding constant for sugar chain No. 729 (FAC binding constant; [2]): <1000 M⁻¹
Binding constant for sugar chain No. 730 (FAC binding constant; [2]): <1000 M⁻¹
Binding constant for sugar chain No. 731 (FAC binding constant; [2]): <1000 M⁻¹
Binding constant for sugar chain No. 739 (FAC binding constant; [2]): <1000 M⁻¹
Binding constant for sugar chain No. 909 (FAC binding constant; [2]): <1000 M⁻¹
Binding constant for sugar chain No. 910 (FAC binding constant; [2]): <1000 M⁻¹
Binding constant for sugar chain No. 931 (FAC binding constant; [2]): <1000 M⁻¹
Binding constant for sugar chain No. 932 (FAC binding constant; [2]): <1000 M⁻¹
Binding constant for sugar chain No. 933 (FAC binding constant; [2]): <1000 M⁻¹
Binding constant for sugar chain No. 001 (FAC binding constant; sugar chain having no fucose): <1000 M⁻¹
Binding constant for sugar chain No. 002 (FAC binding constant; sugar chain having no fucose): <1000 M⁻¹
Binding constant for sugar chain No. 003 (FAC binding constant; sugar chain having no fucose): <1000 M⁻¹
Binding constant for sugar chain No. 004 (FAC binding constant; sugar chain having no fucose): <1000 M⁻¹
Binding constant for sugar chain No. 005 (FAC binding constant; sugar chain having no fucose): <1000 M⁻¹
Binding constant for sugar chain No. 006 (FAC binding constant; sugar chain having no fucose): <1000 M⁻¹
Binding constant for sugar chain No. 007 (FAC binding constant; sugar chain having no fucose): <1000 M⁻¹
Binding constant for sugar chain No. 008 (FAC binding constant; sugar chain having no fucose): <1000 M⁻¹
Binding constant for sugar chain No. 009 (FAC binding constant; sugar chain having no fucose): <1000 M⁻¹
Binding constant for sugar chain No. 010 (FAC binding constant; sugar chain having no fucose): <1000 M⁻¹
Binding constant for sugar chain No. 011 (FAC binding constant; sugar chain having no fucose): <1000 M⁻¹
Binding constant for sugar chain No. 012 (FAC binding constant; sugar chain having no fucose): <1000 M⁻¹
Binding constant for sugar chain No. 013 (FAC binding constant; sugar chain having no fucose): <1000 M⁻¹
Binding constant for sugar chain No. 014 (FAC binding constant; sugar chain having no fucose): <1000 M⁻¹
Binding constant for sugar chain No. 101 (FAC binding constant; sugar chain having no fucose): <1000 M⁻¹
Binding constant for sugar chain No. 103 (FAC binding constant; sugar chain having no fucose): <1000 M⁻¹
Binding constant for sugar chain No. 104 (FAC binding constant; sugar chain having no fucose): <1000 M⁻¹
Binding constant for sugar chain No. 105 (FAC binding constant; sugar chain having no fucose): <1000 M⁻¹
Binding constant for sugar chain No. 107 (FAC binding constant; sugar chain having no fucose): <1000 M⁻¹
Binding constant for sugar chain No. 108 (FAC binding constant; sugar chain having no fucose): <1000 M⁻¹
Binding constant for sugar chain No. 301 (FAC binding constant; sugar chain having no fucose): <1000 M⁻¹
Binding constant for sugar chain No. 304 (FAC binding constant; sugar chain having no fucose): <1000 M⁻¹
Binding constant for sugar chain No. 305 (FAC binding constant; sugar chain having no fucose): <1000 M⁻¹
Binding constant for sugar chain No. 307 (FAC binding constant; sugar chain having no fucose): <1000 M⁻¹
Binding constant for sugar chain No. 308 (FAC binding constant; sugar chain having no fucose): <1000 M⁻¹
Binding constant for sugar chain No. 313 (FAC binding constant; sugar chain having no fucose): <1000 M⁻¹
Binding constant for sugar chain No. 314 (FAC binding constant; sugar chain having no fucose): <1000 M⁻¹
Binding constant for sugar chain No. 323 (FAC binding constant; sugar chain having no fucose): <1000 M⁻¹
Binding constant for sugar chain No. 501 (FAC binding constant; sugar chain having no fucose): <1000 M⁻¹
Binding constant for sugar chain No. 502 (FAC binding constant; sugar chain having no fucose): <1000 M⁻¹
Binding constant for sugar chain No. 503 (FAC binding constant; sugar chain having no fucose): <1000 M⁻¹
Binding constant for sugar chain No. 504 (FAC binding constant; sugar chain having no fucose): <1000 M⁻¹
Binding constant for sugar chain No. 701 (FAC binding constant; sugar chain having no fucose): <1000 M⁻¹
Binding constant for sugar chain No. 702 (FAC binding constant; sugar chain having no fucose): <1000 M⁻¹
Binding constant for sugar chain No. 703 (FAC binding constant; sugar chain having no fucose): <1000 M⁻¹
Binding constant for sugar chain No. 704 (FAC binding constant; sugar chain having no fucose): <1000 M⁻¹
Binding constant for sugar chain No. 705 (FAC binding constant; sugar chain having no fucose): <1000 M⁻¹
Binding constant for sugar chain No. 706 (FAC binding constant; sugar chain having no fucose): <1000 M⁻¹
Binding constant for sugar chain No. 707 (FAC binding constant; sugar chain having no fucose): <1000 M⁻¹
Binding constant for sugar chain No. 708 (FAC binding constant; sugar chain having no fucose): <1000 M⁻¹
Binding constant for sugar chain No. 709 (FAC binding constant; sugar chain having no fucose): <1000 M⁻¹
Binding constant for sugar chain No. 710 (FAC binding constant; sugar chain having no fucose): <1000 M⁻¹
Binding constant for sugar chain No. 711 (FAC binding constant; sugar chain having no fucose): <1000 M⁻¹
Binding constant for sugar chain No. 712 (FAC binding constant; sugar chain having no fucose): <1000 M⁻¹
Binding constant for sugar chain No. 713 (FAC binding constant; sugar chain having no fucose): <1000 M⁻¹
Binding constant for sugar chain No. 715 (FAC binding constant; sugar chain having no fucose): <1000 M⁻¹
Binding constant for sugar chain No. 716 (FAC binding constant; sugar chain having no fucose): <1000 M⁻¹
Binding constant for sugar chain No. 717 (FAC binding constant; sugar chain having no fucose): <1000 M⁻¹
Binding constant for sugar chain No. 724 (FAC binding constant; sugar chain having no fucose): <1000 M⁻¹
Binding constant for sugar chain No. 725 (FAC binding constant; sugar chain having no fucose): <1000 M⁻¹
Binding constant for sugar chain No. 732 (FAC binding constant; sugar chain having no fucose): <1000 M⁻¹
Binding constant for sugar chain No. 733 (FAC binding constant; sugar chain having no fucose): <1000 M⁻¹
Binding constant for sugar chain No. 734 (FAC binding constant; sugar chain having no fucose): <1000 M⁻¹
Binding constant for sugar chain No. 735 (FAC binding constant; sugar chain having no fucose): <1000 M⁻¹
Binding constant for sugar chain No. 736 (FAC binding constant; sugar chain having no fucose): <1000 M⁻¹
Binding constant for sugar chain No. 737 (FAC binding constant; sugar chain having no fucose): <1000 M⁻¹
Binding constant for sugar chain No. 738 (FAC binding constant; sugar chain having no fucose): <1000 M⁻¹
Binding constant for sugar chain No. 901 (FAC binding constant; sugar chain having no fucose): <1000 M⁻¹
Binding constant for sugar chain No. 902 (FAC binding constant; sugar chain having no fucose): <1000 M⁻¹
Binding constant for sugar chain No. 903 (FAC binding constant; sugar chain having no fucose): <1000 M⁻¹
Binding constant for sugar chain No. 905 (FAC binding constant; sugar chain having no fucose): <1000 M⁻¹
Binding constant for sugar chain No. 906 (FAC binding constant; sugar chain having no fucose): <1000 M⁻¹
Binding constant for sugar chain No. 907 (FAC binding constant; sugar chain having no fucose): <1000 M⁻¹
Binding constant for sugar chain No. 015 (FAC binding constant; sugar chain having α1→6 fucose): 49000 M⁻¹
Binding constant for sugar chain No. 201 (FAC binding constant; sugar chain having α1→6 fucose): 64000 M⁻¹
Binding constant for sugar chain No. 202 (FAC binding constant; sugar chain having α1→6 fucose): 61000 M⁻¹
Binding constant for sugar chain No. 203 (FAC binding constant; sugar chain having α1→6 fucose): 52000 M⁻¹
Binding constant for sugar chain No. 401 (FAC binding constant; sugar chain having α1→6 fucose): 57000 M⁻¹
Binding constant for sugar chain No. 402 (FAC binding constant; sugar chain having α1→6 fucose): 44000 M⁻¹
Binding constant for sugar chain No. 403 (FAC binding constant; sugar chain having α1→6 fucose): 56000 M⁻¹
Binding constant for sugar chain No. 404 (FAC binding constant; sugar chain having α1→6 fucose): 58000 M⁻¹
Binding constant for sugar chain No. 405 (FAC binding constant; sugar chain having α1→6 fucose): 54000 M⁻¹
Binding constant for sugar chain No. 406 (FAC binding constant; sugar chain having α1→6 fucose): 38000 M⁻¹
Binding constant for sugar chain No. 407 (FAC binding constant; sugar chain having α1→6 fucose): 10000 M⁻¹
Binding constant for sugar chain No. 410 (FAC binding constant; sugar chain having α1→6 fucose): 39000 M⁻¹
Binding constant for sugar chain No. 418 (FAC binding constant; sugar chain having α1→6 fucose): 4300 M⁻¹
Binding constant for sugar chain No. 601 (FAC binding constant; sugar chain having α1→6 fucose): 10000 M⁻¹
Binding constant for sugar chain No. 602 (FAC binding constant; sugar chain having α1→6 fucose): 32000 M⁻¹
Substance: SRL: fucose α1→6 specific lectin that can be extracted from Stropharia rugosoannulata, SEQ ID No. 2
Δ (=A − B) (serum fucosylated PSA; pH in lectin reaction 7.4): 126.3 U/mL
Δ (=A − B) (serum fucosylated PSA; pH in lectin reaction 9.6): 217.7 U/mL
lectin reaction value B of Healthy 1 (serum fucosylated PSA; pH in lectin reaction 7.4): 20.0 U/mL
lectin reaction value B of Healthy 1 (serum fucosylated PSA; pH in lectin reaction 9.6): 16.8 U/mL
lectin reaction value A of Prostate cancer 4 (serum fucosylated PSA; pH in lectin reaction 7.4): 146.3 U/mL
lectin reaction value A of Prostate cancer 4 (serum fucosylated PSA; pH in lectin reaction 9.6): 234.5 U/mL
